Cn1cnc2c1c(=O)[nH]c(=O)n2C
solubility (mole fraction)
Conditions | 293.15 K | 298.15 K | 303.15 K | 308.15 K | 313.15 K | 318.15 K
in ethanol | 1.53e-05 | 2.33e-05 | 3.15e-05 | 3.85e-05 | 5.49e-05 | 6.34e-05
in n-octanol | 0.000214 | 0.000433 | – | 0.00061 | – | 0.000824
in water | 0.001 | 0.00101 | 0.00101 | 0.00103 | 0.00104 | 0.00104

Cn1c(=O)c2c(ncn2CCO)n(C)c1=O
Conditions | solubility (mole fraction)
in ethanol, 313.9 K | 0.001
in ethanol, 321.2 K | 0.0016
in ethanol, 325.7 K | 0.0023
in ethanol, 327.4 K | 0.0029
in ethanol, 332.5 K | 0.004
in ethanol, 336.8 K | 0.0055
in ethanol, 339.1 K | 0.0065
in ethanol, 339.7 K | 0.0068
in ethanol, 342.4 K | 0.0077
in ethanol, 343.8 K | 0.0081
in ethanol, 344.9 K | 0.0086
in n-octanol, 323.2 K | 0.0026
in n-octanol, 333.2 K | 0.0046
in n-octanol, 335.2 K | 0.006
in n-octanol, 338.4 K | 0.0074
in n-octanol, 343.5 K | 0.0095
in n-octanol, 351.8 K | 0.0149
in n-octanol, 355.5 K | 0.02
in n-octanol, 365.2 K | 0.0259
in water, 290.7 K | 0.0027
in water, 300.9 K | 0.0039
in water, 301.6 K | 0.0041
in water, 303.4 K | 0.0042
in water, 304.6 K | 0.0048
in water, 306 K | 0.0052
in water, 312.5 K | 0.0067
in water, 312.8 K | 0.0067
in water, 316.2 K | 0.0086
in water, 317.9 K | 0.0099
in water, 320.5 K | 0.0119
in water, 322.5 K | 0.0133
in water, 324.9 K | 0.0155
in water, 330.8 K | 0.0204
in water, 334.7 K | 0.026
in water, 342 K | 0.0447
in water, 347.3 K | 0.0623
in water, 348.4 K | 0.0808

Cn1c(=O)c2[nH]cnc2n(C)c1=O
Conditions | solubility (mole fraction)
in ethanol, 309.4 K | 0.0008
in ethanol, 313 K | 0.0013
in ethanol, 318.6 K | 0.002
in ethanol, 321.3 K | 0.0027
in ethanol, 325.2 K | 0.0036
in ethanol, 332.8 K | 0.005
in ethanol, 340.1 K | 0.0083
in ethanol, 345.3 K | 0.0123
in n-octanol, 322.3 K | 0.001
in n-octanol, 327.2 K | 0.0013
in n-octanol, 330.2 K | 0.0017
in n-octanol, 336.7 K | 0.0025
in n-octanol, 337.5 K | 0.0027
in n-octanol, 343.8 K | 0.0045
in n-octanol, 352.1 K | 0.0063
in n-octanol, 355.3 K | 0.0069
in n-octanol, 364.5 K | 0.008
in water, 308.5 K | 0.0004
in water, 310.6 K | 0.0005
in water, 314.5 K | 0.0007
in water, 316.7 K | 0.0009
in water, 319.3 K | 0.001
in water, 323.4 K | 0.0012
in water, 326.2 K | 0.0018
in water, 333.3 K | 0.0026
in water, 337.6 K | 0.0039
in water, 342.6 K | 0.0064
in water, 343.1 K | 0.007

From BigSolDB 2.1
